{"source": "patent US5573773A", "about": "“Stable highly concentrated formulations of fluorescein derivatives” (Ciba Geigy Corporation, priority 1992, dated 1996)", "key": {"T4 tumour cells": {"test_system": "T4 tumour cells", "conditions": "over 10 minutes", "source_text": "The higher the extracellular concentration of FDA, the higher the resultant intracellular concentration of fluorescein."}, "rabbit lens epithelium": {"test_system": "rabbit lens epithelium", "assay": "cytotoxic effect of irradiation of intracellular fluorescein in vivo on rabbit lens epithelium", "procedure": "The cytotoxic effect of the irradiation of intracellular fluorescein with […] laser light (argon) is investigated in vivo on rabbit lens epithelium. This is done by first treating both rabbit eyes with Voltaren® eye drops (3 times over 24 hours) and expanding the pupillae with a mydriatic. The rabbits are operated on under a full anaesthetic. After a small incision of the cornea, the anterior chamber of the eye is thoroughly rinsed for 1 minute with sodium chloride solution (to remove natural chamber water), then slowly rinsed with 5 ml of FDA solution (1 ml/min) and filled, thereafter kept for a further 5 minutes and once more rinsed with sodium chloride solution for 1 minute (to remove excess FDA solution). While washing the chamber with FDA solution, sodium chloride solution is dropped onto the cornea (for rapid dilution and removal of the FDA solution flowing back from the chamber). […] Finally, irradiation (0.92 W to 0.64 W) is carded out for 30 seconds, the circular irradiation surface on the plane of the lens being 95 mm^2 (11 mm diameter). […] All investigated irradiation doses (291 mJ/mm^2 to 19 mJ/mm^2) were effective."}, "[1]": {"test_system": "human T24 carcinoma cells", "assay": "intracellular uptake and generation of fluorescein from FDA in T24 carcinoma cells by microscopic fluorimetry", "source_text": "(§3) After removal of FDA from the tissue culture medium, the generation of fluorescein from the cells can be measured. […] The intensity of fluorescence of intracellular fluorescein fades when the fluorescein is correspondingly excited. The higher the intracellular concentration of fluorescein at a given irradiation energy, the stonger this fading is: the lower level for a fading effect is 0.004 mmol/l of intracellular fluorescein for 71 mJ/mm^2 and 0.002 mmol/l for 560 mJ/mm^2 (irradiation time 120 seconds)."}, "rabbit eye cornea": {"test_system": "rabbit eye cornea", "assay": "cytotoxic effect of irradiation of intracellular fluorescein in vivo on rabbit eye cornea", "conditions": "for lowest effective energy for fading effect: 488 nm argon laser", "procedure": "The cytotoxic effect of the irradiation of intracellular fluorescein with 488 nm laser light (argon) is investigated in vivo on rabbit eye cornea. FDA solution is dropped on to the cornea for 10 minutes, followed by washing with physiological sodium chloride solution. Irradiation is afterwards effected. The intensity of florescence on the cornea rises sharply during this time, then slowly falls to zero over about 5 hours after washing. Irradiation of the fluorescing cornea results in black specks the size of which matches the area irradiated by the laser. The lowest effective energy for this fading effect is about 2.4 J/mm^2 with 0.01 mmol/l of FDA and 0.11 J/mm^2 with 0.02 mmol/l of FDA. […] The lower limit of the irradiation energy for this cytotoxic effect is up to 0.38 mJ/mm^2 (5 seconds and 20 seconds) using 0.02 mmol/l of FDA."}, "living cells": {"test_system": "living cells", "assay": "uptake by living cells", "format": "cell-based", "from_the_text": "(§1) Fluorescein therefore accumulates temporarily in the cells. […] Intensive irradiation reduces the intensity of fluorescein.\n(§2) Loading the intracellular space of cells with fluorescein is, however, complicated by the fact that FDA is also hydrolysed by esterases in the extracellular fluid. The amount of FDA available for cell loading is thereby reduced. For reproducible clinical use it is therefore advisable to lower the concentration of extracellular esterases. This is conveniently done by washing the environment of the particular area which it is desired to treat. A further problem may arise from the fact that the FDA diffuses away from the site of actual use and, as a consequence thereof, is also taken up by cells that are not to be treated at all. This problem can be countered by optimising the local application of FDA as well as the defined irradiation, typically by using a particularly well focussed beam of light."}, "[2]": {"test_system": "human T24 carcinoma cells", "assay": "intracellular uptake of fluorescein from FDA dissolved in viscous medium Hymecel", "format": "cell-based", "from_the_text": "Eight minutes after removal of the viscous solution and washing the cells, the intracellular fluorescein concentration is 0.004 to 0.005 mmol/l after 0.01 mmol/l of FDA, 0.007 to 0.009 mmol/l after 0.02 mmol/l of FDA and 0.019 mmol/l after 0.04 mmol/l of FDA."}, "[3]": {"test_system": "human T24 carcinoma cells", "assay": "fading of intracellular fluorescein on irradiation in T24 carcinoma cells", "format": "cell-based"}, "uptake by living cells": {"assay": "uptake by living cells", "format": "cell-based", "conditions": "living cells; intracellular; read-out: half-life of fluorescein within a cell", "from_the_text": "as §1, §2"}, "in vitro": {"assay": "in vitro", "conditions": "human, t24 carcinoma cells", "source_text": "as §3"}, "[4]": {"test_system": "human T24 carcinoma cells", "assay": "cells", "conditions": "read-out: cells killed", "from_the_text": "The cytoxic action of irradiation (excitation 480 nm) of intracellular fluorescein from FDA is investigated using tissue culture of human T24 carcinoma cells. This is done by fluorometric determination of the intracellular fluorescein concentration under a microscope (excitation 480 nm; emission 520 nm) in single cells and the vitality via the uptake of propidium iodide."}}, "note": "Like-named read-outs stand apart in the source and are kept apart here.", "data": [{"smiles": "CC(=O)Oc1ccc2c(c1)Oc1cc(OC(C)=O)ccc1C21OC(=O)c2ccccc21", "note": "[FDA, fluorescein diacetate]", "values": [{"measurement": "plateau concentration of intracellular fluorescein", "setting": "T4 tumour cells; 1 μm FDA solution", "value": 25, "unit": "μm"}, {"measurement": "plateau concentration of intracellular fluorescein", "setting": "T4 tumour cells; 100 μm FDA solution", "value": 70, "unit": "μm"}, {"measurement": "effectiveness of investigated irradiation doses", "setting": "rabbit lens epithelium; 291 mJ/mm^2 to 19 mJ/mm^2", "value": "effective"}, {"measurement": "fluorescence of the cornea surface near the incision site", "setting": "rabbit lens epithelium; FDA solution in anterior chamber", "value": "fluoresces minimally"}, {"measurement": "fluorescence of the lens surface after irradiation", "setting": "rabbit lens epithelium; after irradiation", "value": "no longer fluoresces"}, {"measurement": "fluorescence of the anterior lens capsule", "setting": "rabbit lens epithelium; before irradiation, epifluorescent stereomicroscope", "value": "constant marked increase of fluorescence"}, {"measurement": "histological evaluation of lens in irradiation field", "setting": "rabbit lens epithelium; sacrificed about 18 hours later, irradiation 30 seconds", "value": "total necrosis of the lens epithelium and microscopically unchanged basal membrane, pyknotic nuclear residues and edematous swelling of the anterior subcapsular area of the lens"}, {"measurement": "intracellular fluorescein concentration", "setting": "[1]; 0.0001 mmol/l of FDA", "value": "no longer measurable"}, {"measurement": "intracellular fluorescein concentration", "setting": "[1]; 0.001 mmol/l of FDA, after 10 minutes", "value": 0.004, "unit": "mmol/L"}, {"measurement": "intracellular fluorescein concentration", "setting": "[1]; 0.01 mmol/l of FDA, after 10 minutes", "value": 0.01, "unit": "mmol/L"}, {"measurement": "intracellular fluorescein concentration", "setting": "[1]; 0.02 mmol/l of FDA, after 10 minutes", "value": 0.015, "unit": "mmol/L"}, {"measurement": "intracellular fluorescein concentration", "setting": "[1]; 0.04 mmol/l of FDA, after 10 minutes", "value": 0.017, "unit": "mmol/L"}, {"measurement": "duration of linear rise of intracellular fluorescein concentration", "setting": "[1]; FDA added to medium", "value": "about 4 minutes"}, {"measurement": "time to approximately plateau values of intracellular fluorescein concentration", "setting": "[1]; FDA added to medium", "value": "about 10 minutes"}, {"measurement": "lowest effective energy for fading effect", "setting": "rabbit eye cornea; 0.01 mmol/l of FDA", "value": "about 2.4 J/mm^2"}, {"measurement": "lower limit of irradiation energy for cytotoxic effect", "setting": "rabbit eye cornea; 0.02 mmol/l of FDA, 5 seconds and 20 seconds", "value": "up to 0.38 mJ/mm^2"}, {"measurement": "lowest effective energy for fading effect", "setting": "rabbit eye cornea; 0.02 mmol/l of FDA", "value": 0.11, "unit": "J/mm^2"}, {"measurement": "time for cornea fluorescence to fall to zero after washing", "setting": "rabbit eye cornea; FDA solution dropped on cornea for 10 minutes", "value": "about 5 hours"}, {"measurement": "histology of irradiated cornea (black specks)", "setting": "rabbit eye cornea; irradiated fluorescing cornea", "value": "areas of dead epithelial cells in the outermost layer of the cornea"}, {"measurement": "uptake by living cells", "setting": "living cells", "value": "readily taken up by most living cells"}, {"measurement": "intracellular fluorescein concentration", "setting": "[2]; 0.04 mmol/l of FDA in Hymecel, 8 minutes after removal and washing", "value": 0.019, "unit": "mmol/L"}, {"measurement": "increase in intracellular fluorescein concentration and plateau values versus aqueous medium", "setting": "[2]; FDA in Hymecel", "value": "approximately match those after incubation of the cells in aqueous medium"}]}, {"smiles": "O=C1OC2(c3ccc(O)cc3Oc3cc(O)ccc32)c2ccccc21", "note": "[fluorescein]", "values": [{"measurement": "fading on irradiation for observation", "setting": "[3]; 0.1 mW/mm^2, 1 to 10 minutes", "value": "no measurable fading"}, {"measurement": "lower level of intracellular fluorescein for a fading effect", "setting": "[3]; 71 mJ/mm^2, irradiation time 120 seconds", "value": 0.004, "unit": "mmol/L"}, {"measurement": "lower level of intracellular fluorescein for a fading effect", "setting": "[3]; 560 mJ/mm^2, irradiation time 120 seconds", "value": 0.002, "unit": "mmol/L"}, {"measurement": "kinetics order of exclusion of fluorescein from the individual cells", "setting": "[1]; after removal of FDA from the medium", "value": "first order kinetics"}, {"measurement": "uptake of pure fluorescein added to the cells", "setting": "[1]; pure fluorescein", "value": "No uptake can be observed"}, {"measurement": "uptake by living cells", "setting": "living cells", "value": "virtually not taken up by living cells"}, {"measurement": "half-life", "setting": "uptake by living cells", "value": "~15", "unit": "min"}, {"measurement": "half-life", "setting": "in vitro", "value": "10 to 25", "unit": "min"}, {"measurement": "cytotoxicity at 7 µM", "setting": "[4]; 15 s", "value": 50, "unit": "%"}, {"measurement": "cytotoxicity at 13 µM", "setting": "[4]; 15 s", "value": 50, "unit": "%"}, {"measurement": "cytotoxicity at 3 µM", "setting": "[4]; 2 min", "value": 50, "unit": "%"}, {"measurement": "cytotoxicity at 5 µM", "setting": "[4]; 2 min", "value": 50, "unit": "%"}]}]}
